Experimental data published in PubChem BioAssay (NCI).
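Assay format: 96-well plates, 48-hour exposure. TGI marks complete inhibition of growth.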

Tests used:
Experiment in all cases: DTP human tumour cell line panel, 48 h
786-0 renal = tested on: 786-0 renal
HCT-116 colon = tested on: HCT-116 colon
HCT-15 colon = tested on: HCT-15 colon
HOP-92 NSCLC = tested on: HOP-92 NSCLC
IGROV1 ovarian = tested on: IGROV1 ovarian
KM12 colon = tested on: KM12 colon
M14 melanoma = tested on: M14 melanoma
NCI-H226 lung = tested on: NCI-H226 lung
OVCAR-4 ovarian = tested on: OVCAR-4 ovarian
OVCAR-8 ovarian = tested on: OVCAR-8 ovarian
SF-268 CNS = tested on: SF-268 CNS
SR leukemia = tested on: SR leukemia
SW-620 colon = tested on: SW-620 colon
UO-31 renal = tested on: UO-31 renal
SK-MEL-2 melanoma = tested on: SK-MEL-2 melanoma
TK-10 renal = tested on: TK-10 renal

| SMILES | TGI (786-0 renal) [µM] | TGI (HCT-116 colon) [µM] | TGI (HCT-15 colon) [µM] | TGI (HOP-92 NSCLC) [µM] | TGI (IGROV1 ovarian) [µM] | TGI (KM12 colon) [µM] | TGI (M14 melanoma) [µM] | TGI (NCI-H226 lung) [µM] | TGI (OVCAR-4 ovarian) [µM] | TGI (OVCAR-8 ovarian) [µM] | TGI (SF-268 CNS) [µM] | TGI (SR leukemia) [µM] | TGI (SW-620 colon) [µM] | TGI (UO-31 renal) [µM] | TGI (SK-MEL-2 melanoma) [µM] | TGI (TK-10 renal) [µM] |
| --- | --- | --- | --- | --- | --- | --- | --- | --- | --- | --- | --- | --- | --- | --- | --- | --- |
| CCN(CC)CCC(=O)c1ccc(Cl)c(Cl)c1 | 31.9 | 68.3 | > 100 | 30.6 | > 100 | > 100 | > 100 | > 100 | > 100 | > 100 | 63.4 | 64.2 | 41.3 | > 100 |  |  |
| COc1ccc(C[C@@H]2OC3(C=CC(=O)CC3Sc3ccccc3)O[C@H]2Cc2ccc(OC)cc2)cc1 (stereo not given in full) | 0.365 |  | 2.8 | 2.49 | 2.13 | 5.63 | 2.75 | 3.33 | 3.7 | 0.966 | 1.75 | 0.583 | 0.946 | 2.28 | 3.05 | 3.88 |
| C[n+]1c(-c2ccc(/C=N\Nc3ccnc(N/N=C/c4ccc(-c5cn6ccsc6[n+]5C)cc4)n3)cc2)cn2ccsc21 | 32.8 |  | > 100 | > 100 | 65.4 | 84.5 | 30.4 | 66.7 | > 100 | > 100 |  | 64.8 | > 100 | > 100 |  | > 100 |
| COc1cc2c(cc1OC)C1CN3CCCC3C(O)C1c1cc(OC)c(OC)cc1-2 (stereo not given) | > 100 | > 100 | > 100 | > 100 | > 100 | > 100 | > 100 |  | > 100 | > 100 | > 100 | > 100 | > 100 | > 100 | > 100 | > 100 |
| COc1ccc(NC(=O)CSc2nc(C)nc3c2sc(=S)n3-c2ccccc2)cc1 | > 10 | > 10 | > 10 | > 10 | > 10 | > 10 | > 10 | > 10 | 9.29 | > 10 | > 10 | > 10 | > 10 |  |  | > 10 |
| CC1CCC2C(C)C(OC(=O)CCC(=O)O)OC3OC4(C)CCC1C32OO4 (stereo not given) | > 100 | 16.3 | > 100 | 31 | 23.1 | 23 | > 100 |  | 27.7 | > 100 | > 100 | 3.37 | > 100 | 3.88 | 42.3 | 14.7 |
| CC(=O)c1ccc(NC(=O)C(=O)CC(=O)c2sc(-n3nc(-c4ccccc4)cc3-c3ccccc3)nc2C)cc1 | > 100 | > 100 | > 100 |  | > 100 | > 100 | > 100 | > 100 | > 100 | > 100 | > 100 | > 100 | > 100 | > 100 | > 100 | > 100 |
| O=c1nc(N2CCCCC2)sc2[nH]c3ccccc3c12 | > 100 |  | > 100 | > 100 | > 100 | > 100 | > 100 |  | > 100 | > 100 | > 100 | > 100 | > 100 | 54.9 | > 100 | > 100 |
| Cc1c(N)c(C#N)c2n(C)c3ncccc3n2c1=O | > 100 | > 100 | > 100 | > 100 |  | > 100 | > 100 | > 100 | > 100 | > 100 | > 100 | > 100 | > 100 | > 100 | > 100 | > 100 |
| COC(=O)C1=C(C)NC(CF)=C(C(=O)OC)C1c1cccc2c(=O)c3ccccc3oc12 (stereo not given) | 33.8 | > 100 | > 100 | 35.3 | 18.9 | > 100 |  | > 100 | > 100 | > 100 | 63.6 | > 100 | > 100 | 92.8 | > 100 | > 100 |
| CC(=O)OC1CCn2c1nc1c2C(=O)C=C(N2CC2)C1=O (stereo not given) | 0.557 | 0.781 | 1.96 | 1.83 | 1.88 |  | 0.186 | 6 | 0.231 | 1.57 | 0.784 | 0.346 | 0.146 | 0.35 | 0.439 | 0.86 |
| CN1CC=C(C#CC(C)(C)O)CC1 | > 37.5 | > 37.5 | > 37.5 |  | > 37.5 | > 37.5 | > 37.5 | > 37.5 | > 37.5 | > 37.5 | > 37.5 | > 37.5 | > 37.5 | > 37.5 | > 37.5 | > 37.5 |
| Cc1cc(N(C)c2ccccc2)nc(N(C)c2ccccc2)n1 | > 100 | 37.6 | > 100 |  | > 100 | 45.7 | > 100 | 96 | > 100 | > 100 | > 100 | 55.5 | > 100 | > 100 | 36.9 | > 100 |
| O=c1c2ccccc2nc(-c2ccccc2)n1/N=C/c1ccccc1[N+](=O)[O-] | > 100 | > 100 | > 100 | 98.4 | > 100 | > 100 | > 100 | > 100 | > 100 | > 100 | > 68.7 | > 100 | > 100 |  | > 100 | > 59.6 |
| COC1(OC)CCCCCCCCC(OC)(OC)CCCCCCCC1 | > 100 | > 100 | > 100 | > 100 | > 100 | > 100 | > 100 | > 100 |  | > 100 | > 100 | > 100 | > 100 | 10.9 | > 100 | > 100 |
